Patent publication US20130344026A1, “Dimeric Smac Mimetics” (priority 2009, published 2013)
Read-outs that look alike come from different tables or passages of the source.

Tested on: PANC-1 cells
Assay: cell viability assay in PANC-1 cells (compound alone, + 100 ng/ml TNFa, + 300 ng/ml TRAIL)
Format: cell-based
[1] = Homo sapiens, PANC-1, compound alone, Tables 15-18, read-out: IC50 (uM) in cell viability assay in PANC-1 cells: Cmpnd alone
[2] = with 100 ng/ml TNFa, Tables 15-18, read-out: IC50 (uM) in cell viability assay in PANC-1 cells: Cmpnd + 100 ng/ml TNFa
[3] = with 300 ng/ml TRAIL, Tables 15-18, read-out: IC50 (uM) in cell viability assay in PANC-1 cells: Cmpnd + 300 ng/ml TRAIL
[4] = Homo sapiens, PANC-1, compound alone, Tables 6-10, read-out: IC50 (μM) in cell viability assay in PANC-1 cells: Compound alone
[5] = with 100 ng/ml TNFa, Tables 6-10, read-out: IC50 (μM) in cell viability assay in PANC-1 cells: Compound + 100 ng/ml TNFa
[6] = with 300 ng/ml TRAIL, Tables 6-10, read-out: IC50 (μM) in cell viability assay in PANC-1 cells: Compound + 300 ng/ml TRAIL
[7] = Homo sapiens, PANC-1 cells, compound alone, read-out: IC50 (uM) in cell viability assay in PANC-1 cells, Cmpnd alone
[8] = PANC-1 cells, + 100 ng/ml TNFa, read-out: IC50 (uM) in cell viability assay in PANC-1 cells, Cmpnd + 100 ng/ml TNFa
[9] = PANC-1 cells, + 300 ng/ml TRAIL, read-out: IC50 (uM) in cell viability assay in PANC-1 cells, Cmpnd + 300 ng/ml TRAIL

Row | IC50 [4] [µM] | IC50 [5] [µM] | IC50 [6] [µM] | SMILES | also measured
1 | – | – | – | CN[C@@H](C)C(=O)N[C@@H](CC(=O)NCC=CC=CCNC(=O)C[C@H](NC(=O)[C@H](C)NC)C(=O)N1CCC[C@H]1C(=O)N[C@@H]1CCCc2ccccc21)C(=O)N1CCC[C@H]1C(=O)N[C@@H]1CCCc2ccccc21 [Compound P2-42] | IC50 [1]: > 1 µM; IC50 [2]: 0.091 µM; IC50 [3]: 0.148 µM
2 | > 1 | > 1 | > 1 | CN[C@@H](C)C(=O)N[C@H](C(=O)N1C[C@@H](NC(=O)CC[C@@H](NC(=O)[C@H](NC(=O)[C@@H](C)NC)C(C)C)C(=O)N[C@@H](C)C(C)C)C[C@H]1C(=O)N[C@H](C)c1ccccc1)C(C)C [Compound 168] | –
3 | – | – | – | CN[C@@H](CO)C(=O)N[C@H](C(=O)N1C[C@@H](NC(=O)c2cc(C(=O)N[C@H]3C[C@@H](C(=O)N[C@H](C)c4ccccc4)N(C(=O)[C@@H](NC(=O)[C@H](CO)NC)C(C)(C)C)C3)[nH]n2)C[C@H]1C(=O)N[C@H](C)c1ccccc1)C(C)(C)C [Compound P3-91] | IC50 [7]: > 1 µM; IC50 [8]: 0.152 µM; IC50 [9]: 0.225 µM
4 | > 1 | > 1 | > 1 | CN[C@@H](C)C(=O)N[C@@H](CC#CC#CC[C@H](NC(=O)[C@H](C)NC)C(=O)N1Cc2ccccc2C[C@H]1C(=O)N[C@H](C)c1ccccc1)C(=O)N1Cc2ccccc2C[C@H]1C(=O)N[C@H](C)c1ccccc1 [Compound 95] | –
5 | > 1 | 0.025 | 0.028 | CN[C@@H](C)C(=O)N[C@@H](C)C(=O)N1C[C@@H](NC(=O)c2cccc(C(=O)N[C@H]3C[C@@H](C(=O)N[C@@H]4CCCc5ccccc54)N(C(=O)[C@@H](NC(=O)[C@H](C)NC)C(C)(C)C)C3)c2)C[C@H]1C(=O)N[C@H](C)c1ccccc1 [Compound 172] | –
6 | > 1 | > 1 | > 1 | CN[C@@H](C)C(=O)Nc1nc(CC(=O)NCC[C@H](NC(=O)[C@@H](NC(=O)[C@H](C)NC)C(C)(C)C)C(=O)N[C@@H]2CCCc3ccccc32)cs1 [Compound 190] | –
7 | – | – | – | CN[C@@H](C)C(=O)N[C@H](C(=O)N1C[C@H](NC(=O)c2ccc(CCc3ccc(C(=O)N[C@@H]4C[C@@H](C(=O)N[C@@H]5CCCc6ccccc65)N(C(=O)[C@@H](NC(=O)[C@H](C)NC)C(C)(C)C)C4)cc3)cc2)C[C@H]1C(=O)N[C@@H]1CCCc2ccccc21)C(C)(C)C [Compound P2-46] | IC50 [1]: > 1 µM; IC50 [2]: 0.0007 µM; IC50 [3]: 0.0009 µM
8 | > 1 | 0.263 | 0.398 | CN[C@@H](C)C(=O)N[C@@H](CCCCNC(=O)c1cccc(C(=O)NCCCC[C@H](NC(=O)[C@H](C)NC)C(=O)N2CCC[C@H]2Cn2nnnc2Sc2ccccc2)c1)C(=O)N1CCC[C@H]1Cn1nnnc1Sc1ccccc1 [Compound 207] | –
9 | > 1 | 0.0069 | 0.0107 | CN[C@@H](C)C(=O)N[C@H](C(=O)N[C@@H](CCNC(=O)c1cccc(C(=O)N[C@H]2C[C@@H](C(=O)N[C@@H]3CCCc4ccccc43)N(C(=O)[C@@H](NC(=O)[C@H](C)NC)C(C)(C)C)C2)c1)C(=O)N[C@H](C)c1ccccc1)C(C)(C)C [Compound 174] | –
10 | > 1 | > 1 | > 1 | CN[C@@H](C)C(=O)N[C@H](C(=O)N1CCC[C@H]1Cn1cnnc1CCc1ccccc1)[C@@H](C)OCC#CC#CCO[C@H](C)[C@H](NC(=O)[C@H](C)NC)C(=O)N1CCC[C@H]1Cn1cnnc1CCc1ccccc1 [Compound 85] | –
11 | > 1 | > 1 | > 1 | CN[C@@H](C)C(=O)Nc1nc(CC(=O)NCCc2cn([C@H]3C[C@@H](C(=O)N[C@@H]4CCCc5ccccc54)N(C(=O)[C@@H](NC(=O)[C@H](C)NC)C(C)(C)C)C3)nn2)cs1 [Compound 195] | –
12 | – | – | – | CN[C@@H](C)C(=O)N[C@H](C(=O)N1C[C@@H](NC(=O)c2cccc(C(=O)N[C@H]3C[C@@H](C(=O)N[C@H](CO)c4ccccc4)N(C(=O)[C@@H](NC(=O)[C@H](C)NC)C(C)(C)C)C3)c2)C[C@H]1C(=O)N[C@H](CO)c1ccccc1)C(C)(C)C [Compound P3-99] | IC50 [7]: > 1 µM; IC50 [8]: 0.062 µM; IC50 [9]: 0.054 µM
13 | > 1 | 0.547 | 0.798 | CN[C@@H](C)C(=O)N[C@@H](CCCCCC[C@H](NC(=O)[C@H](C)NC)C(=O)N1c2ccccc2C[C@H]1C(=O)N[C@H](C)c1ccccc1)C(=O)N1c2ccccc2C[C@H]1C(=O)N[C@H](C)c1ccccc1 [Compound 92] | –
14 | – | – | – | CC[C@H](NC)C(=O)N[C@H](C(=O)N[C@@H](CCNC(=O)c1ccc2cc(C(=O)N[C@H]3C[C@@H](C(=O)N[C@@H]4CCCc5ccccc54)N(C(=O)[C@@H](NC(=O)[C@H](C)NC)C(C)(C)C)C3)ccc2c1)C(=O)N[C@H](C)C(C)C)C1CCCCC1 [Compound H-11] | IC50 [1]: > 1 µM
15 | > 1 | 0.05 | 0.048 | CN[C@@H](C)C(=O)NC(C(=O)N1C[C@@H](NC(=O)c2cccc(C(=O)N[C@H]3CC(C(=O)N[C@H](CO)Cc4ccccc4)N(C(=O)[C@@H](NC(=O)[C@H](C)NC)C(C)(C)C)C3)c2)CC1C(=O)N[C@H](CO)Cc1ccccc1)C(C)(C)C (stereo partly shown) [Compound 43] | –
16 | > 1 | > 1 | > 1 | CN[C@@H](C)C(=O)N[C@H](C(=O)N1CCC[C@H]1Cn1cnnc1Cc1ccccc1)[C@@H](C)OCC#CC#CCO[C@H](C)[C@H](NC(=O)[C@H](C)NC)C(=O)N1CCC[C@H]1Cn1cnnc1Cc1ccccc1 [Compound 80] | –
17 | – | – | – | CN[C@@H](C)C(=O)N[C@@H](CCCCNC(=O)c1cccc(C(=O)NCCCC[C@H](NC(=O)[C@H](C)NC)C(=O)N2C[C@@H](Oc3ccccc3)C[C@H]2C(=O)N[C@@H]2CCCc3ccccc32)c1)C(=O)N1C[C@@H](Oc2ccccc2)C[C@H]1C(=O)N[C@@H]1CCCc2ccccc21 [Compound P2-36] | IC50 [1]: > 1 µM; IC50 [2]: 0.079 µM; IC50 [3]: 0.09 µM
18 | > 1 | 0.452 | 0.434 | CN[C@@H](C)C(=O)NC(C(=O)N1C[C@@H](NC(=O)c2cccc(C(=O)N[C@H]3CC(C(=O)N[C@H](C)c4cccc5ccccc45)N(C(=O)[C@@H](NC(=O)[C@H](C)NC)C(C)(C)C)C3)c2)CC1C(=O)NC(C)c1cccc2ccccc12)C(C)(C)C (stereo partly shown) [Compound 41] | –
19 | > 1 | 0.006 | 0.006 | CN[C@@H](C)C(=O)N[C@@H](CCCCCC[C@H](NC(=O)[C@H](C)NC)C(=O)N1C[C@@H](F)C[C@H]1C(=O)N[C@@H]1CCCc2ccccc21)C(=O)N1C[C@H](F)C[C@H]1C(=O)N[C@@H]1CCCc2ccccc21 [Compound 106] | –

Row | SMILES | IC50 [4] [µM] | IC50 [5] [µM] | IC50 [6] [µM] | also measured
20 | CN[C@@H](C)C(=O)N[C@H](C(=O)N[C@@H](CCNC(=O)c1cc(C(=O)N[C@H]2C[C@@H](C(=O)N[C@@H]3CCCc4ccccc43)N(C(=O)[C@@H](NC(=O)[C@H](C)NC)C(C)(C)C)C2)cc([N+](=O)[O-])c1)C(=O)N[C@@H]1CCCc2ccccc21)C(C)C [Compound 182] | > 1 | 0.043 | 0.08 | –
21 | CN[C@@H](C)C(=O)N[C@H](C(=O)N1C[C@@H](NC(=O)c2cccc(C(=O)N[C@H]3C[C@@H](C(=O)NCCc4ccc(O)cc4)N(C(=O)[C@@H](NC(=O)[C@H](C)NC)C(C)(C)C)C3)c2)C[C@H]1C(=O)NCCc1ccc(O)cc1)C(C)(C)C [Compound 3] | > 1 | 0.5 | 0.42 | –
22 | CN[C@@H](C)C(=O)N[C@H](C(=O)N1CCC[C@H]1C(=O)N[C@H]1c2ccccc2C[C@H]1OCC#CC#CCO[C@@H]1Cc2ccccc2[C@@H]1NC(=O)[C@@H]1CCCN1C(=O)[C@@H](NC(=O)[C@H](C)NC)C(C)(C)C)C(C)(C)C [Compound 119] | > 1 | 0.0014 | 0.0018 | –
23 | CN[C@@H](C)C(=O)N[C@H](C(=O)N1C[C@@H](NC(=O)c2cc(C(=O)O)cc(C(=O)N[C@H]3C[C@@H](C(=O)N[C@@H]4CCCc5ccccc54)N(C(=O)[C@@H](NC(=O)[C@H](C)NC)C(C)(C)C)C3)c2)C[C@H]1C(=O)N[C@@H]1CCCc2ccccc21)C(C)(C)C [Compound 127] | > 1 | 0.032 | 0.028 | –
24 | CN[C@@H](C)C(=O)N[C@H](C(=O)N1C[C@@H](NC(=O)c2cc(C(=O)NCCN)cc(C(=O)N[C@H]3C[C@@H](C(=O)N[C@@H]4CCCc5ccccc54)N(C(=O)[C@@H](NC(=O)[C@H](C)NC)C(C)(C)C)C3)c2)C[C@H]1C(=O)N[C@@H]1CCCc2ccccc21)C(C)(C)C [Compound 126] | > 1 | 0.023 | 0.028 | –
25 | CN[C@@H](C)C(=O)N[C@H](C(=O)N1C[C@@H](NC(=O)c2cccc(C(=O)N[C@H]3C[C@@H](C(=O)NC4CCSc5ccccc54)N(C(=O)[C@@H](NC(=O)[C@H](C)NC)C(C)(C)C)C3)c2)C[C@H]1C(=O)NC1CCSc2ccccc21)C(C)(C)C (single isomer, unassigned) [Compound 67] | > 1 | 0.191 | 0.22 | –
26 | CN[C@@H](C)C(=O)N[C@H](C(=O)N1C[C@@H](NC(=O)c2cccc(C(=O)N[C@H]3C[C@@H](C(=O)NC4CCCc5c(OC)cccc54)N(C(=O)[C@@H](NC(=O)[C@H](C)NC)C(C)(C)C)C3)c2)C[C@H]1C(=O)NC1CCCc2c(OC)cccc21)C(C)(C)C (single isomer, unassigned) [Compound 47] | – | 0.012 | 0.011 | IC50 (compound alone, Tables 6-10, read-out: IC50 (μM) in cell viability assay in PANC-1 cells: Compound alone): > 1 µM
